Experimental data as given in patent US12384789B2, “Compounds for treating Huntington's disease” (PTC Therapeutics, Inc., priority 2017, dated 2025).

Tested on: Endogenous Huntingtin Protein
Test: Endogenous Huntingtin Protein Assay (Meso Scale Discovery ELISA-based electrochemiluminescence)
Type: cell-based
Conditions: MSD electrochemiluminescence, Table 1
Procedure, shortened: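 MSD electrochemiluminescence sandwich ELISA: MW1 (expanded polyQ) or MAB2166 capture antibody at 1 μg/mL, samples incubated overnight at 4° C. Detection with rabbit monoclonal #5656S then SULFO-TAG anti-rabbit antibody, each 0.25 μg/mL for 1 h at room temperature.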

| SMILES | IC50 |
| --- | --- |
| Cc1cc(-c2ccc3nc(C4CCNCC4)ncc3c2F)cc2cn(C)nc12 [Compound 38, 6-(2,7-dimethyl-2H-indazol-5-yl)-5-fluoro-2-(piperidin-4-yl)quinazoline] | 1000 to 3000 nM |
| Cc1cn2cc(-c3cc(F)c4nc(C5CCNCC5)nnc4c3)cc(C(F)(F)F)c2n1 [Compound 61, 5-fluoro-7-[2-methyl-8-(trifluoromethyl)imidazo[1,2-a]pyridin-6-yl]-3-(piperidin-4-yl)-1,2,4-benzotriazine] | 500 to 1000 nM |
| CCN1CCC(c2cc3c(F)cc(-c4cc(C5CC5)c5nc(C)cn5n4)cc3nn2)CC1 [Compound 115, 7-(8-cyclopropyl-2-methylimidazo[1,2-b]pyridazin-6-yl)-3-(1-ethylpiperidin-4-yl)-5-fluorocinnoline] | ≤ 100 nM |
| Cc1cc(-c2cc(F)c3cc(C4CCNCC4)nnc3c2)cc2cn(C)nc12 [Compound 73, 7-(2,7-dimethyl-2H-indazol-5-yl)-5-fluoro-3-(piperidin-4-yl)cinnoline] | ≤ 100 nM |
| Cc1cn2cc(-c3nnc4cc(C5CC6CCC(C5)N6)ccc4n3)cc(F)c2n1 (stereo not shown) [Compound 56, 7-(8-azabicyclo[3.2.1]oct-3-yl)-3-(8-fluoro-2-methylimidazo[1,2-a]pyridin-6-yl)-1,2,4-benzotriazine] | ≤ 100 nM |
| Cc1cc2oc(-c3cc(F)c4cc(C5CCN(C)CC5)nnc4c3)nc2c(C)n1 [Compound 214, 7-(4,6-dimethyl[1,3]oxazolo[4,5-c]pyridin-2-yl)-5-fluoro-3-(1-methylpiperidin-4-yl)cinnoline] | 100 to 500 nM |
| CCN1CCC(c2cc3c(F)cc(-c4cc(CC#N)c5nc(C)cn5n4)cc3nn2)CC1 [Compound 205, {6-[3-(1-ethylpiperidin-4-yl)-5-fluorocinnolin-7-yl]-2-methylimidazo[1,2-b]pyridazin-8-yl}acetonitrile] | 100 to 500 nM |
| Cc1cn2cc(-c3cc(F)c4cc(C5CCNCC5)nnc4c3)cc(C)c2n1 [Compound 103, 7-(2,8-dimethylimidazo[1,2-a]pyridin-6-yl)-5-fluoro-3-(piperidin-4-yl)cinnoline] | ≤ 100 nM |
| Cn1cc2cc(-c3cc(F)c4cc(C5CCNCC5)nnc4c3)cc(F)c2n1 [Compound 96, 5-fluoro-7-(7-fluoro-2-methyl-2H-indazol-5-yl)-3-(piperidin-4-yl)cinnoline] | ≤ 100 nM |
| Cc1cc(-c2ccc3nc(C4CCNCC4)ncc3c2)cc2cn(C)nc12 [Compound 23, 6-(2,7-dimethyl-2H-indazol-5-yl)-2-(piperidin-4-yl)quinazoline] | 100 to 500 nM |
| Cc1cn2cc(-c3cc(F)c4cc(C5CCNCC5)nnc4c3)cc(F)c2n1 [Compound 92, 5-fluoro-7-(8-fluoro-2-methylimidazo[1,2-a]pyridin-6-yl)-3-(piperidin-4-yl)cinnoline] | ≤ 100 nM |
| Cc1cc(-c2ccc3nc(C4CC(C)(C)NC(C)(C)C4)ccc3c2)cc2cn(C)nc12 [Compound 14, 6-(2,7-dimethyl-2H-indazol-5-yl)-2-(2,2,6,6-tetramethylpiperidin-4-yl)quinoline] | 100 to 500 nM |
| Cc1cc(-c2ccc3nc(C4CCNCC4)cnc3c2)cc2cn(C)nc12 [Compound 31, 6-(2,7-dimethyl-2H-indazol-5-yl)-2-(piperidin-4-yl)quinoxaline] | 100 to 500 nM |
| Cc1cc(C2CCNCC2)nc2ccc(-c3ccc4nn(C)cc4c3)cc12 [Compound 5, 4-methyl-6-(2-methyl-2H-indazol-5-yl)-2-(piperidin-4-yl)quinoline] | 1000 to 3000 nM |
| CCCN1CCC(c2cc3c(F)cc(-c4cc(C)c5nc(C)cn5n4)cc3nn2)CC1 [Compound 77, 7-(2,8-dimethylimidazo[1,2-b]pyridazin-6-yl)-5-fluoro-3-(l-propylpiperidin-4-yl)cinnoline] | ≤ 100 nM |
| Cc1cc2nc(-c3cc(F)c4cc(C5CCNCC5)nnc4c3)sc2c(C)n1 [Compound 196, 7-(4,6-dimethyl[1,3]thiazolo[5,4-c]pyridin-2-yl)-5-fluoro-3-(piperidin-4-yl)cinnoline] | ≤ 100 nM |
| Cc1cn2nc(-c3nnc4cc(C5CCNCC5)ccc4n3)cc(C)c2n1 [Compound 44, 3-(2,8-dimethylimidazo[1,2-b]pyridazin-6-yl)-7-(piperidin-4-yl)-1,2,4-benzotriazine] | 100 to 500 nM |
| CCCc1cc(-c2cc(F)c3cc(C4CCN(CC)CC4)nnc3c2)nn2cc(C)nc12 [Compound 212, 3-(1-ethylpiperidin-4-yl)-5-fluoro-7-(2-methyl-8-propylimidazo[1,2-b]pyridazin-6-yl)cinnoline] | 100 to 500 nM |
| Cn1cc2cc(-c3ccc4cc(N5CCNCC5)ccc4n3)ccc2n1 [Compound 7, 2-(2-methyl-2H-indazol-5-yl)-6-(piperazin-1-yl)quinoline] | 1000 to 3000 nM |
| CCN1CCCC(c2cc3c(F)cc(-c4cc(C)c5nc(C)cn5n4)cc3nn2)CC1 (stereo not shown) [Compound 189, 7-(2,8-dimethylimidazo[1,2-b]pyridazin-6-yl)-3-(1-ethylazepan-4-yl)-5-fluorocinnoline] | ≤ 100 nM |

Next, values leading:

| IC50 | SMILES |
| --- | --- |
| ≤ 100 nM | Cc1cn2nc(-c3cc(F)c4nc(C5CCNCC5)nnc4c3)cc(C)c2n1 [Compound 46, 7-(2,8-dimethylimidazo[1,2-b]pyridazin-6-yl)-5-fluoro-3-(piperidin-4-yl)-1,2,4-benzotriazine] |
| 1000 to 3000 nM | Cc1cn2cc(-c3cc(F)c4cc(C5CCNCC5)nnc4c3)cnc2n1 [Compound 91, 5-fluoro-7-(2-methylimidazo[1,2-a]pyrimidin-6-yl)-3-(piperidin-4-yl)cinnoline] |
| ≤ 100 nM | Cc1cn2nc(-c3cc(F)c4cc(C5CCN(CCO)CC5)nnc4c3)cc(CO)c2n1 [Compound 181, 2-(4-{5-fluoro-7-[8-(hydroxymethyl)-2-methylimidazo[1,2-b]pyridazin-6-yl]cinnolin-3-yl}piperidin-1-yl)ethan-1-ol] |
| 100 to 500 nM | CCN1CCC(c2cc3c(F)cc(-c4cc(C(C)C)c5nc(C)cn5n4)cc3nn2)CC1 [Compound 222, 3-(1-ethylpiperidin-4-yl)-5-fluoro-7-[2-methyl-8-(propan-2-yl)imidazo[1,2-b]pyridazin-6-yl]cinnoline] |
| ≤ 100 nM | CCN1CCC(c2cc(F)c3cc(-c4cc(C)c5nn(C)cc5c4)nnc3c2)CC1 [Compound 183, 3-(2,7-dimethyl-2H-indazol-5-yl)-7-(1-ethylpiperidin-4-yl)-5-fluorocinnoline] |
| ≤ 100 nM | Cc1cn2nc(-c3cc(F)c4cc(N5CC[C@@H](N(C)C)C5)nnc4c3)cc(C)c2n1 [Compound 89, (3R)-1-[7-(2,8-dimethylimidazo[1,2-b]pyridazin-6-yl)-5-fluorocinnolin-3-yl]-N,N-dimethylpyrrolidin-3-amine] |
| ≤ 100 nM | CCN1CCC(c2cc3c(F)cc(-c4cc(CCO)c5nc(C)cn5n4)cc3nn2)CC1 [Compound 206] |
| ≤ 100 nM | Cc1nc2c(C)cc(-c3cc(F)c4nc(C5CCNCC5)nnc4c3)cc2[nH]1 [Compound 63, 7-(2,4-dimethyl-1H-benzimidazol-6-yl)-5-fluoro-3-(piperidin-4-yl)-1,2,4-benzotriazine] |
| ≤ 100 nM | Cc1cn2nc(-c3cc(F)c4cc(N5CCC(C)(N(C)C)CC5)nnc4c3)cc(C)c2n1 [Compound 224, 1-[7-(2,8-dimethylimidazo[1,2-b]pyridazin-6-yl)-5-fluorocinnolin-3-yl]-N,N,4-trimethylpiperidin-4-amine] |
| ≤ 100 nM | Cc1cn2nc(-c3cc(F)c4nc(C5CCNCC5)ccc4c3)cc(C)c2n1 [Compound 45, 6-(2,8-dimethylimidazo[1,2-b]pyridazin-6-yl)-8-fluoro-2-(piperidin-4-yl)quinoline] |
| ≤ 100 nM | Cn1cc2cc(-c3cc(F)c4nc(C5CCNCC5)ncc4c3)cc(C#N)c2n1 [Compound 35, 5-[8-fluoro-2-(piperidin-4-yl)quinazolin-6-yl]-2-methyl-2H-indazole-7-carbonitrile] |
| 100 to 500 nM | Cn1cc2cc(-c3ccc4nc(C5CCNCC5)cnc4c3)cc(C(F)(F)F)c2n1 [Compound 24, 6-[2-methyl-7-(trifluoromethyl)-2H-indazol-5-yl]-2-(piperidin-4-yl)quinoxaline] |
| ≤ 100 nM | CCN1CCC(c2cc3c(F)cc(-c4cc(C#N)c5nc(C)cn5n4)cc3nn2)CC1 [Compound 114, 6-[3-(1-ethylpiperidin-4-yl)-5-fluorocinnolin-7-yl]-2-methylimidazo[1,2-b]pyridazine-8-carbonitrile] |
| ≤ 100 nM | Cc1cn2nc(-c3cc(F)c4cc(C5CC(C)N(CCO)C(C)C5)nnc4c3)cc(C)c2n1 (stereo not shown) [Compound 155, 2-{(25,65)-4-[7-(2,8-dimethylimidazo[1,2-b]pyridazin-6-yl)-5-fluorocinnolin-3-yl]-2,6-dimethylpiperidin-1-yl}ethan-1-ol] |
| ≤ 100 nM | Cn1cc2cc(-c3cc(F)c4cc(C5CCNCC5)nnc4c3)cc(C#N)c2n1 [Compound 104, 5-[5-fluoro-3-(piperidin-4-yl)cinnolin-7-yl]-2-methyl-2H-indazole-7-carbonitrile] |
| 1000 to 3000 nM | CCN1CCC(c2ccc3nc(-c4ccc5nn(C)cc5c4)ccc3c2)CC1 [Compound 2, 6-(1-ethylpiperidin-4-yl)-2-(2-methyl-2H-indazol-5-yl)quinoline] |
| ≤ 100 nM | Cc1cn2nc(-c3cc(F)c4cc(C5CCNCC5)nnc4c3)cc(CC#N)c2n1 [Compound 187, {6-[5-fluoro-3-(piperidin-4-yl)cinnolin-7-yl]-2-methylimidazo[1,2-b]pyridazin-8-yl}acetonitrile] |
| ≤ 100 nM | Cc1cn2nc(-c3cc(F)c4cc(C5CCCNC5)nnc4c3)cc(C)c2n1 (stereo not shown) [Compound 216, 7-(2,8-dimethylimidazo[1,2-b]pyridazin-6-yl)-5-fluoro-3-(piperidin-3-yl)cinnoline] |
| ≤ 100 nM | Cc1nc2c(C)cc(-c3cc(F)c4cc(C5CCNCC5)nnc4c3)nc2o1 [Compound 148, 7-(2,7-dimethyl[1,3]oxazolo[5,4-b]pyridin-5-yl)-5-fluoro-3-(piperidin-4-yl)cinnoline] |
| ≤ 100 nM | Cc1cn2nc(-c3cc(F)c4nc(C5CCNCC5)ncc4c3)cc(C)c2n1 [Compound 37, 6-(2,8-dimethylimidazo[1,2-b]pyridazin-6-yl)-8-fluoro-2-(piperidin-4-yl)quinazoline] |
